# Several values for one entry are separate records, joined by “and”; a condition that tells them apart may be missing. Identical values can stand only once. Entries after “also recorded” stand apart in the source; their conditions may differ. Like-named read-outs stand apart in the source and are kept apart here.
# Assays:
# rat brain vesicles = settings: cited from earlier work
# [1] = test system: nicotine (10 μM)-evoked [3H]overflow from rat striatal slices; experiment: Mecamylamine antagonism of nicotine-evoked [3H]overflow from rat striatal slices; assay type: cell-based
# Description: (§1) Rat striata were rapidly dissected on ice and were sliced using a McIlwain tissue chopper. […] Slices were rinsed with 15 mL fresh buffer and then incubated in fresh buffer containing 0.1 μM [^3 H]DA (6-8 slices/3 mL) for an additional 30 min. Subsequently, slices were rinsed with 15 mL fresh buffer and transferred to a glass superfusion chamber. […] After 60 min of superfusion when basal outflow was stabilized, two 5-min samples (5 mL) were collected to determine basal [^3 H]outflow.
# To determine the ability of mecamylamine to antagonize nicotine-evoked [^3 H]overflow, a repeated-measure design was utilized also. Individual slices were superfused with a single concentration (0.01-100 μM) of mecamylamine for 60 min, followed by 60 min of superfusion with nicotine (10 μM) in the presence of the various mecamylamine concentrations. One slice in each experiment was superfused in the absence of mecamylamine to determine the effect of nicotine alone. A control slice was superfused with buffer alone.
# (§2) The pH and volume of the solubilized tissue samples were adjusted to those of the superfusate samples.
# (§3) Fractional release for each superfusate sample was calculated by dividing the tritium collected in each sample by the total tritium present in the tissue at the time of sample collection. Fractional release was expressed as a percentage of total tritium in the tissue at the time of sample collection. Basal outflow was calculated from the average of the tritium collected in the two 5-min samples just before the addition of drug.
# (§4) Inhibition of synaptosomal and vesicular [^3 H]DA uptake were analyzed by repeated-measures, one-way ANOVA, and by an iterative nonlinear least-squares curve-fitting program (GraphPAD-PRIZM; GraphPAD, San Diego, Calif.) to obtain IC50 values. Dunnett's post hoc test was used to compare treatment means to a single control mean. Also, Duncan's New Multiple Range Test or Fisher's LSD post hoc analysis were used to compare pairs of treatment means. Duncan's New Multiple Range Test was used when significant one-way ANOVA's were obtained or when significant main effects were obtained in the two-way ANOVA's. Fisher's LSD post hoc analysis is a more conservative test, which takes into account error which cumulates during multiple comparisons of pairs of means. Fisher's LSD analysis was used when the interaction term was significant in the two-way ANOVAs, specifically in the post hoc analysis of drug×time interactions. Statistical significance was reached when P<0.05 (two-tailed, unless otherwise indicated).
# reserpine site on VMAT2 = settings: read-out: IC50, inhibition of binding to the reserpine site; cited from earlier work
# [2] = biological target: T1, vesicular monoamine transporter-2 (VMAT2), DTBZ/TBZ site, rat striatal vesicle membranes (Rattus norvegicus, UniProt Q01827); experiment: [3H]DTBZ binding to rat striatal vesicles; settings: 2 nM [3H]DTBZ
# T1 construct: from tissue; host or cells: rat striatum, synaptic vesicles
# T1 sequence (Q01827 whole entry): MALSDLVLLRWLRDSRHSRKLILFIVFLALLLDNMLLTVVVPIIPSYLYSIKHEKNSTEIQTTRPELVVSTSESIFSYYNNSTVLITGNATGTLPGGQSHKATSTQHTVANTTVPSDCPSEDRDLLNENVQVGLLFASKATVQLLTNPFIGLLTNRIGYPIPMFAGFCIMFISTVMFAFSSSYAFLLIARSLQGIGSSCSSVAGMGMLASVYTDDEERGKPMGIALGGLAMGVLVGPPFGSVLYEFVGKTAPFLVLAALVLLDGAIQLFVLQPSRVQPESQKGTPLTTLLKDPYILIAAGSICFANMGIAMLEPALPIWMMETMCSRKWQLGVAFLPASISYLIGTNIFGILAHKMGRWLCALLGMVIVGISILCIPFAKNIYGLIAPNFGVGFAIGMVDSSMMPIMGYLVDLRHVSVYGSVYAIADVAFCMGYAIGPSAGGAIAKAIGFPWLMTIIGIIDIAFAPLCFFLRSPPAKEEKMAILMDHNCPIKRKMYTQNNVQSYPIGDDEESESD
# [3] = test system: rat striatal synaptic vesicles; experiment: [3H]DA release from striatal synaptic vesicles preloaded with [3H]DA; assay type: biochemical
# Description: (§5) The homogenate was then centrifuged at 2,000×g for 10 min at 4° C. and the resulting supernatant was centrifuged at 10,000×g for 30 min at 4° C. Synaptosomes (buffy coat) were separated from the underlying mitochondria and cellular debris (reddish pellet) by gentle swirling in 2 mL of 0.32 M sucrose. The enriched synaptosome fraction (2.0 mL) was subjected to osmotic shock by addition of 7 mL distilled H2 0 and was homogenized with 5 up and down strokes of the TEFLON pestle. The osmolarity was restored by the addition of 900 μL of 0.25 M HEPES and 900 μL of 1.0 M neutral potassium-tatrate buffer (pH 7.5) followed by a 20 min centrifugation (20,000×g at 4° C.). The supernatant was then centrifuged for 60 min (55,000×g at 4° C.).
# The final vesicle pellet from a pool of striata from three rats was resuspended in 3 mL of release assay buffer (in mM: 25 HEPES, 100 L-(+)-tartaric acid dipotassium salt, 0.05 EGTA, 0.10 EDTA, 2 Mg^2+ -ATP, and 1.7 ascorbic acid, pH 7.4) and then incubated with [^3 H]DA (0.3 μM) for 8 min at 37° C. […] [^3 H]DA efflux represents the net result of events, i.e., release and reuptake. […] The reaction was terminated by addition of 2.5 mL of ice-cold assay buffer containing 2 mM MgSO4. Samples were rapidly filtered through Whatman GF/F filters using the Brandel cell harvester.
# The amount of drug-induced [^3 H]DA release from synaptic vesicles was calculated by subtracting the amount of tritium remaining in the drug-exposed samples from that remaining in the control samples (in the absence of drug). The amount of drug-induced [^3 H]DA release was then divided by the amount of tritium remaining in the control samples and was expressed as a percentage of control.
# Concentration-response and kinetic data were analyzed by repeated-measures one-way ANOVA and between-group one-way ANOVA, respectively. When appropriate, Fisher's least significant difference post hoc test was used to determine significant differences between treatment means. IC50 and EC50 values were obtained by an iterative nonlinear least-squarescurve-fitting program (GraphPAD-PRIZM: GraphPAD, San Diego, Calif., U.S.A.) for one-site competition and sigmoidal concentration response, respectively. The t1/2 was obtained by an iterative nonlinear least-squares curve-fitting program for one-phase decay. KD and Bmax values were obtained by Scatchard analysis using an iterative linear least-squares curve-fitting program.
# human VMAT2 [4] = settings: read-out: Ki, inhibition of monoamine uptake; cited from earlier work
# [5] = biological target: [3H]DTBZ binding site, rat striatal homogenates; settings: read-out: Ki, inhibition of [3H]DTBZ binding; cited from earlier work
# human VMAT2 [6] = settings: read-out: Ki, inhibition of [3H]DTBZ binding; cited from earlier work
# monoamine oxidase = settings: cited from earlier work
# [7] = test system: rat striatal slices preloaded with [3H]DA; experiment: [3H]DA release assay: drug-evoked [3H]overflow / fractional release from rat striatal slices preloaded with [3H]DA; assay type: cell-based
# Description: as §1
# The concentration-response for each drug was determined using a repeated-measures design.
# as §2, §3, §4
# [8] = biological target: T2, plasma membrane DA transporter (rat striatal synaptosomes) (Rattus norvegicus, UniProt P23977); experiment: [3H]DA uptake assay, striatal synaptosomal preparation; assay type: biochemical; settings: nicotine 0.001 nM-100 μM
# T2 construct: from tissue; host or cells: rat striatum, synaptosomes
# T2 sequence (P23977 whole entry): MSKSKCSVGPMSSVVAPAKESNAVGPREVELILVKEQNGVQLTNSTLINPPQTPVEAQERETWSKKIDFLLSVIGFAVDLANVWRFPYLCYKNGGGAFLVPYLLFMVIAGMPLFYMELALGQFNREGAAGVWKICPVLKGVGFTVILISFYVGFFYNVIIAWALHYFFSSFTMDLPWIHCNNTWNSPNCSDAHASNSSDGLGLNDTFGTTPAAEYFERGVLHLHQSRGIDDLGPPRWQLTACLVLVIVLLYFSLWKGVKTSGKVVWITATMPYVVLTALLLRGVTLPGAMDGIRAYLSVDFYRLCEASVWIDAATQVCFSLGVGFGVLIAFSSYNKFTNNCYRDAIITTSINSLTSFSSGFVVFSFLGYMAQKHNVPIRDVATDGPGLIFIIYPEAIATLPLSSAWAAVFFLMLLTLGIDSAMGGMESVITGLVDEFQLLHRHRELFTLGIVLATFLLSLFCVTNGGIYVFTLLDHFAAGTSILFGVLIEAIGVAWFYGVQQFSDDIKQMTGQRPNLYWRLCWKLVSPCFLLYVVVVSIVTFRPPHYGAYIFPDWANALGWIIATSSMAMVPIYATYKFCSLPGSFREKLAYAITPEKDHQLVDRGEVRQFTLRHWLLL
# Description: The homogenate was centrifuged at 2,000×g for 10 min at 4° C. […] The final protein concentration was 400 μg/mL. The assay was performed in duplicate in a total volume of 500 μL. […] The incubation continued for 10 min at 34° C. The reaction was terminated by the addition of 3 mL cold assay buffer (without 1 mM catechol). Samples were rapidly filtered through a Whatman GF/B filter using a Brandel cell harvester (model MP-43 RS, Biochemical Research and Development Laboratories, Inc., Gaithersburg, Md.) and the filter was subsequently washed 3 times with 4 mL of cold assay buffer containing 1 mM catechol. Filters were previously soaked for 2 hrs in the cold assay buffer containing 1 mM catechol. […] Filters were placed into scintillation vials, 10 mL of scintillation cocktail was added and radioactivity was determined by scintillation spectrometry.
# (§6) Inhibition of synaptosomal and vesicular [^3 H]DA uptake were analyzed by repeated-measures, one-way ANOVA, and by an iterative nonlinear least-squares curve-fitting program (GraphPAD-PRIZM; GraphPAD, San Diego, Calif.) to obtain IC50 values. Dunnett's post hoc test was used to compare treatment means to a single control mean. Also, Duncan's New Multiple Range Test or Fisher's LSD post hoc analysis were used to compare pairs of treatment means. […]
# [9] = biological target: T3, synaptic vesicular monoamine transporter (VMAT2), rat striatal synaptic vesicles (Rattus norvegicus, UniProt Q01827); experiment: [3H]DA uptake assay, striatal synaptic vesicles; assay type: biochemical; settings: nicotine
# T3 construct: from tissue; host or cells: rat striatum, synaptic vesicles
# T3 sequence (Q01827 whole entry): as the sequence (Q01827 whole entry) above
# Description: as §5
# Samples were rapidly filtered through Whatman GF/F filters using the Brandel cell harvester.
# as §6
# [10] = biological target: central nicotinic receptors; settings: read-out: Kd, binding to nicotinic receptors; cited from earlier work
# [11] = test system: nicotinic receptors in mouse brain; settings: in vivo; cited from earlier work
# [12] = test system: locomotor activity in rats; settings: rat, in vivo; cited from earlier work
# [13] = test system: conditioned place preference in rats; settings: rat, in vivo; cited from earlier work
# [14] = test system: rat striatal slices preloaded with [3H]DA; settings: cited from earlier work
# [15] = test system: self-administration by rats; settings: rat, in vivo; cited from earlier work
# [16] = test system: nicotinic receptors in rat brain; settings: in vivo; cited from earlier work
# VMAT2 knockout mice = settings: mouse, in vivo; cited from earlier work
smiles,measurement,setting,value
COc1cc2c(cc1OC)C1CC(=O)C(CC(C)C)CN1CC2 (stereo not shown) [Tetrabenazine],effect on spontaneous efflux of [3H]DA,rat brain vesicles,does not alter spontaneous efflux
CNC1(C)C2CCC(C2)C1(C)C (stereo not shown) [Mecamylamine],inhibition at 0.01 µM,"[1]; Rattus norvegicus, mecamylamine 0.01 μM, read-out: inhibition of nicotine's effect (fractional release)",36%
same,minimal effective concentration,"[1]; Rattus norvegicus, read-out: lowest concentration to produce significant inhibition of nicotine's effect (fractional release, collapsed across time)",0.01 µM
same,Total [3H]overflow evoked by nicotine,[1]; mecamylamine 0.01 μM,3.57 ± 1.52
same,Total [3H]overflow evoked by nicotine,"[1]; mecamylamine 0.1 μM, P<0.05 one-tailed",2.40 ± 0.87
same,Total [3H]overflow evoked by nicotine,"[1]; mecamylamine 1 μM, P<0.05 two-tailed",1.59 ± 0.64
same,Total [3H]overflow evoked by nicotine,"[1]; mecamylamine 10 μM, P<0.05 two-tailed",1.02 ± 0.43
same,Total [3H]overflow evoked by nicotine,"[1]; mecamylamine 100 μM, P<0.05 two-tailed",0.54 ± 0.32
CN[C@@H](C)Cc1ccccc1 [Methamphetamine],IC50,reserpine site on VMAT2,400 nM
C[C@H](N)Cc1ccccc1 [d-Amphetamine],lowest concentration to significantly inhibit [3H]DTBZ binding,[2],10 µM
same,potency in releasing DA from synaptic vesicles vs lobeline,[3],10 fold
same,lowest concentration to evoke [3H]DA release from vesicles,"[3]; 8 min, 37° C.",1 µM
same,EC50,"[3]; 8 min, 37° C., read-out: EC50, evoked [3H]DA release from synaptic vesicles",2220 ± 130 nM
same,Ki,human VMAT2 [4],~2000 nM
same,Ki,[5],> 20000 nM
same,Ki,human VMAT2 [6],300000 nM
same,inhibition of monoamine oxidase,monoamine oxidase,inhibits monoamine oxidase
CN1CCC[C@H]1c1cccnc1 [Nicotine],minimal effective concentration,"[7]; Rattus norvegicus, read-out: lowest concentration which evoked a significant increase in [3H]overflow",0.05 µM
same,time to peak fractional release after addition of drug,[7]; nicotine,10 to 15 min
same,peak fractional release,[7]; nicotine 100 μM,2 % of total tritium in the slice
same,total [3H]overflow,[1]; mecamylamine 0 μM (control),5.60 ± 1.20
same,inhibition of [3H]DA uptake into striatal synaptosomes,[8],did not inhibit; also recorded: no inhibition of synaptosomal [^3 H]DA uptake was observed; also recorded: no effect was observed
same,concentration giving significant inhibition of vesicular [3H]DA uptake,[9],1 mM and ~ 1 mM
same,Kd,[10],1 to 7 nM
same,number of nicotinic receptors after chronic treatment,[11],increase in the number of nicotinic receptors
same,locomotor activity,[12],increase locomotor activity
same,conditioned place preference,[13],produce conditioned place preference
same,mechanism of nicotine-evoked DA release,[14],"calcium-dependent, mecamylamine-sensitive and mediated by nicotinic receptors"
same,self-administration,[15],avidly self-administered by rats
same,number of nicotinic receptors after chronic treatment,[16],increase in the number of nicotinic receptors
CC(N)Cc1ccccc1 (stereo not shown) [amphetamine],conditioned place preference in VMAT2 knockout vs wild-type mice,VMAT2 knockout mice,diminished amphetamine-induced conditioned place preference

# From patent US6087376A (priority 1998, dated 2000)
